Laboratory results published in patent US10195185B2, “3-(1H-imidazo[4,5-C]pyridin-2-yl)-1H-pyrazolo[4,3-B]pyridines and therapeutic uses thereof” (Samumed, LLC, priority 2015, dated 2019).
pEC50: −log10 of the molar value.

Tests used:
Type in all cases: cell-based
[1] = tested on: Wnt activity (Wnt-responsive human Sp5 promoter, TCF/LEF binding sites) in SW480 colon carcinoma cells; experiment: Wnt activity screening assay: Sp5-Luc luciferase reporter gene in SW480 cells; details: for pEC50: 10-point dose-response from 10 μM, incubated overnight; for inhibition at 10 µM: given for EC50 of >10 μM, read-out: percent inhibition at 10 μM
Method in brief: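 SW480 cells stably transduced with an Sp5 promoter (eight TCF/LEF sites)–firefly luciferase lentiviral reporter, plated at 4,000 cells/well in 1% FBS medium with compounds (10-point 1:3 series from 10 μM, 0.1% DMSO) overnight at 37 °C. BrightGlo luminescence normalised to DMSO; EC50 by four-parameter fit, else % inhibition at 10 μM.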

SW480 colon cancer cells = experiment: Cell viability assay (CellTiter-Blue), four days; details: Homo sapiens, 96 h; for inhibition at 10 µM: read-out: percent inhibition at 10 μM (given for EC50 of >10 μM); for pEC50: CellTiter-Blue cell viability
Method in brief: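 4-day exposure, 37 °C/5% CO2; ~2×10^3 SW480 cells/well; 8-pt 1:3 curve, 10–0.0045 μM, duplicates vs DMSO controls. Resazurin→resorufin fluorescence readout, ~3 h. EC50 by nonlinear fit; if >10 μM, % inhibition at 10 μM reported.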

[2] = tested on: IL-6 in human monocyte cell line (THP-1 cells); experiment: IL-6 inhibition in LPS-stimulated THP-1 cells (HTRF); details: IL-6 in LPS-stimulated THP-1 cells; for pEC50: HTRF; for inhibition at 10 µM: read-out: percent inhibition in brackets beside EC50 >10 μM
Method in brief: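 Readout is the 665/620 nm HTRF ratio for secreted IL-6, normalized to DMSO wells, with EC50 from a variable-slope four-parameter fit, or % inhibition at 10 μM when above 10 μM. Cells (1% FBS, 24 h beforehand) got compound for 2 h, then LPS 500 ng/mL for 22 h at 37° C; top dose 10 μM, 0.1% DMSO.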

Row | SMILES | pEC50 [1] | pEC50 (SW480 colon cancer cells) | pEC50 [2] | inhibition at 10 µM [1] [%] | inhibition at 10 µM (SW480 colon cancer cells) [%] | inhibition at 10 µM [2] [%]
1 | CS(=O)(=O)NCc1cc(F)cc(-c2nccc3[nH]c(-c4n[nH]c5ccc(-c6cncnc6)nc45)nc23)c1 [Compound 503, N-(3-Fluoro-5-(2-(5-(pyrimidin-5-yl)-1H-pyrazolo[4,3-b]pyridin-3-yl)-1H-imidazo[4,5-c]pyridin-4-yl)benzyl)methanesulfonamide] | < 5.00 | < 5.00 | < 5.00 | 18.7 | 0.8 | 40.8
2 | CCNCc1cncc(-c2ccc3[nH]nc(-c4nc5c(-c6cc(F)cc(NCCN(C)C)c6)nccc5[nH]4)c3n2)c1 [Compound 454, N^1-(3-(2-(5-(5-((Ethylamino)methyl)pyridin-3-yl)-1H-pyrazolo[4,3-b]pyridin-3-yl)-1H-imidazo[4,5-c]pyridin-4-yl)-5-fluorophenyl)-N^2,N^2-dimethylethane-1,2-diamine] | 5.00 | 5.18 | 5.99 |  |  | 
3 | CN(C)Cc1cncc(-c2ccc3[nH]nc(-c4nc5c(-c6cccc(F)c6)nccc5[nH]4)c3n2)c1 [Compound 13, 1-(5-(3-(4-(3-Fluorophenyl)-1H-imidazo[4,5-c]pyridin-2-yl)-1H-pyrazolo [4,3-b]pyridin-5-yl)pyridin-3-yl)-N,N-dimethylmethanamine] | 5.97 | 6.19 | 5.42 |  |  | 
4 | CS(=O)(=O)NCc1cc(F)cc(-c2nccc3[nH]c(-c4n[nH]c5ccc(-c6cncc(NC(=O)c7ccccc7)c6)nc45)nc23)c1 [Compound 487, N-(5-(3-(4-(3-Fluoro-5-(methylsulfonamidomethyl)phenyl)-1H-imidazo[4,5-c]pyridin-2-yl)-1H-pyrazolo[4,3-b]pyridin-5-yl)pyridin-3-yl)benzamide] | < 5.00 | < 5.00 | < 5.00 | 0 | 0 | 16.9
5 | c1cncc(-c2nccc3[nH]c(-c4n[nH]c5ccc(-c6cncc(OC7CCCCC7)c6)nc45)nc23)c1 [Compound 559, 5-(5-(Cyclohexyloxy)pyridin-3-yl)-3-(4-(pyridin-3-yl)-1H-imidazo[4,5-c]pyridin-2-yl)-1H-pyrazolo[4,3-b]pyridine] | 5.49 | < 5.00 | < 5.00 |  | 18 | 42.7

Continued, in another order:

Row | pEC50 [1] | pEC50 (SW480 colon cancer cells) | pEC50 [2] | SMILES | inhibition at 10 µM [1] [%] | inhibition at 10 µM (SW480 colon cancer cells) [%] | inhibition at 10 µM [2] [%]
6 | < 5.00 | < 5.00 | < 5.00 | c1cc(-c2nccc3[nH]c(-c4n[nH]c5ccc(-c6cnccn6)nc45)nc23)ccn1 [Compound 584, 5-(Pyrazin-2-yl)-3-(4-(pyridin-4-yl)-1H-imidazo[4,5-c]pyridin-2-yl)-1H-pyrazolo[4,3-b]pyridine] | 5.7 | 2.1 | 32.2
7 | < 5.00 | < 5.00 | < 5.00 | Cc1cn(-c2nccc3[nH]c(-c4n[nH]c5ccc(-c6cncc(OCCN(C)C)c6)nc45)nc23)cn1 [Compound 627, N,N-Dimethyl-2-((5-(3-(4-(4-methyl-1H-imidazol-1-yl)-1H-imidazo[4,5-c]pyridin-2-yl)-1H-pyrazolo[4,3-b]pyridin-5-yl)pyridin-3-yl)oxy)ethan-1-amine] | 11.8 | 8.2 | 17.6
8 | 6.34 | < 5.00 | 5.51 | Oc1cncc(-c2ccc3[nH]nc(-c4nc5c(-c6cccnc6)nccc5[nH]4)c3n2)c1 [Compound 565, 5-(3-(4-(Pyridin-3-yl)-1H-imidazo[4,5-c]pyridin-2-yl)-1H-pyrazolo[4,3-b]pyridin-5-yl)pyridin-3-ol] |  | 32.7 | 
